{
  "source": "patent US20130217721A1",
  "about": "“COMPOSITIONS AND METHODS FOR DETECTION AND TREATMENT OF B-RAF INHIBITOR-RESISTANT MELANOMAS” (The Regents of the University of California, priority 2010, published 2013)",
  "key": {"BRAF(V600E/R509H)": {"target": "BRAF(V600E/R509H) (Homo sapiens, UniProt P15056, R509H/V600E)", "sequence (P15056 whole entry R509H/V600E, the tested form may be a part)": "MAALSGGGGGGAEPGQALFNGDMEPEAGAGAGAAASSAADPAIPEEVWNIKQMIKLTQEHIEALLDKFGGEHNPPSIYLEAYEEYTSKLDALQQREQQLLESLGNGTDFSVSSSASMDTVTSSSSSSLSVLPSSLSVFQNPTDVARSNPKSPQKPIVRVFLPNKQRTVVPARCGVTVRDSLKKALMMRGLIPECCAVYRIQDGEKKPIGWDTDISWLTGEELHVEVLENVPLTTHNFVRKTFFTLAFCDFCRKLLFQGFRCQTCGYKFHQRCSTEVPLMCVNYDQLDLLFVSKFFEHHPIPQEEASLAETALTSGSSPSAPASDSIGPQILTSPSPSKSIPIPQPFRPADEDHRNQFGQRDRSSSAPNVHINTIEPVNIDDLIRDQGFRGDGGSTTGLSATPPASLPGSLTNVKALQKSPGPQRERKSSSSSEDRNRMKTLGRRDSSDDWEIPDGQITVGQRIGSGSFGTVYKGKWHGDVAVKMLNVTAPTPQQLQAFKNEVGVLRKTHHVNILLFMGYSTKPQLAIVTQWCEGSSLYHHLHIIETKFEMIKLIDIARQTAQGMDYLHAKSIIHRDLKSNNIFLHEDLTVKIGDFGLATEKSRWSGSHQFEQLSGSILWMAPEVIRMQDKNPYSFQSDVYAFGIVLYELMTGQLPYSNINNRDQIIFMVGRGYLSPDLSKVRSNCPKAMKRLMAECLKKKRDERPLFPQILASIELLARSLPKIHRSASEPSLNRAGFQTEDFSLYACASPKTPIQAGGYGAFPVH", "assay": "ERK signaling in 293H cells expressing BRAF(V600E/R509H)", "assay_type": "cell-based", "settings": "2 μM PLX4032 for 1 hour", "text": "FIGS. 6A-6E. […] FIG. 6A. PCR analysis of BRAF in cDNA from parental (P) and C3 cells. Primers were designed at the N-terminus and C-terminus of BRAF. […] Abbreviations: CR1: Conserved Region 1, CR2: Conserved Region 2, CR3: Conserved Region 3, RBD: RAS-binding domain, CRD: Cystine-Rich Domain, AS: Activation Segment, KD: Kinase Domain. FIG. 6B. Full length wild-type BRAF and the 1.7 kb/61 kd splice variant of BRAF(V600E) were cloned into a pcDNA3.1 vector with a FLAG tag at the C-terminus and expressed in 293H cells. The effect of PLX4032 (2 μM for 1 hour) on ERK signaling in the presence of p61 BRAF(V600E) was analyzed by western blot for pMEK and pERK. FIG. 6C. To compare levels of dimerization, 293H cells co-expressing FLAG tagged and V5-tagged p61 BRAF(V600E), full length BRAF(V600E) and the corresponding dimerization-deficient mutants p61 BRAF(V600E/R509H) and BRAF(V600E/R509H) were lysed followed by immunoprecipitation with FLAG antibody. Western blots with V5 or FLAG antibodies were performed as indicated. FIG. 6D. Comparison of MEK/ERK activation and sensitivity of ERK signaling to PLX4032 (2 μM for 1 hour) in 293H cells expressing either Flag-tagged BRAF(V600E) or the dimerization mutant Flag-tagged BRAF(V600E/R509H). FIG. 6E. […]"}, "B-RAF(V600E) kinase": {"target": "B-RAF(V600E) kinase (Homo sapiens, UniProt P15056, V600E)", "sequence (P15056 whole entry V600E)": "as the sequence (P15056 whole entry R509H/V600E, the tested form may be a part) above, with H509R counted along it", "assay": "In vitro kinase assay of immunoprecipitated B-RAF", "assay_type": "biochemical", "settings": "from resistant sub-lines and short-term cultures compared with parental cell lines; 1 μM PLX4032, 30 min at 30° C.", "text": "Cells were harvested and protein lysates prepared in a NP40-based buffer before subjected to immunoprecipitation (IP). […] The beads were subsequently pelleted and the supernatant resuspended in sample buffer for western blotting to detect p-MEK and total MEK."}, "[1]": {"test_system": "MAPK signalling (p-MEK1/2 and p-ERK1/2)", "settings": "PLX4032 0, 0.01, 0.1, 1 and 10 μM", "method": "FIG. 1A, Parental and PLX4032-resistant sub-lines were treated with increasing PLX4032 concentration (0, 0.01, 0.1, 1 and 10 μM), and the effects on MAPK signalling were determined by immunoblotting for p-MEK1/2 and p-ERK1/2 levels. Total MEK1/2, ERK1/2 and tubulin levels, loading controls.\nWestern blots were probed with antibodies against p-MEK1/2 (S217/221), MEK1/2, p-ERK1/2 (T202N204), ERK1/2, PDGFRβ, and EGFR (Cell Signaling Technologies), and N-RAS (Santa Cruz Biotechnology), pan-RAS (Thermo Scientific) and tubulin (Sigma). p-RTK arrays were performed according to the manufacturer's recommendations (Human Phospho-RTK Array Kit, R&D Systems).\nCell lysates for western blotting were made in RIPA (Sigma) with protease inhibitor cocktail (Roche) and phosphatase inhibitor cocktails I and II (Santa Cruz Biotechnology). Western blots were probed with antibodies against p-MEK1/2 (S217/221), total MEK1/2, p-ERK1/2 (T202/Y204), total ERK1/2, PDGFRβ, and EGFR (all from Cell Signaling Technologies), B-RAF and N-RAS (Santa Cruz Biotechnology), pan-RAS (Thermo Scientific) and tubulin (Sigma). p-RTK arrays were performed according to the manufacturer's recommendations (Human Phospho-RTK Array Kit, R&D Systems)."}, "p61 BRAF(V600E)": {"target": "p61 BRAF(V600E) (Homo sapiens, UniProt P15056, DEL169-380/V600E)", "sequence (P15056 with tags, fused parts or gaps DEL169-380/V600E)": "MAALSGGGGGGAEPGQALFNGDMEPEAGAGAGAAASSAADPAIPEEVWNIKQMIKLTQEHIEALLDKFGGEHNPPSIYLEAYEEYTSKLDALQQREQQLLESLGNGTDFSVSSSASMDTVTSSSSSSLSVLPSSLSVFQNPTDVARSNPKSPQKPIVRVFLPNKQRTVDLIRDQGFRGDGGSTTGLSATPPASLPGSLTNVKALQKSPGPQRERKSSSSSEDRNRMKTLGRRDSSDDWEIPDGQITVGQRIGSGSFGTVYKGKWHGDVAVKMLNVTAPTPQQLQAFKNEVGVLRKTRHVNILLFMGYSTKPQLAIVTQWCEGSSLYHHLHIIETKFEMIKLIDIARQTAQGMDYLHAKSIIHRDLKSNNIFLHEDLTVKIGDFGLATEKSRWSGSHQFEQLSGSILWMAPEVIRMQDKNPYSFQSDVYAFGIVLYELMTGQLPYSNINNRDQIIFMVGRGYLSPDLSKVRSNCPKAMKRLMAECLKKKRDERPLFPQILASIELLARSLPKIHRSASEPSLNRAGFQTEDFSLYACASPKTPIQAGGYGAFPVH", "assay": "ERK signaling in cells ectopically expressing p61 BRAF(V600E)", "assay_type": "cell-based", "text": "FIGS. 6A-6E. […] FIG. 6A. PCR analysis of BRAF in cDNA from parental (P) and C3 cells. Primers were designed at the N-terminus and C-terminus of BRAF. […] Abbreviations: CR1: Conserved Region 1, CR2: Conserved Region 2, CR3: Conserved Region 3, RBD: RAS-binding domain, CRD: Cystine-Rich Domain, AS: Activation Segment, KD: Kinase Domain. FIG. 6B. Full length wild-type BRAF and the 1.7 kb/61 kd splice variant of BRAF(V600E) were cloned into a pcDNA3.1 vector with a FLAG tag at the C-terminus and expressed in 293H cells. The effect of PLX4032 (2 μM for 1 hour) on ERK signaling in the presence of p61 BRAF(V600E) was analyzed by western blot for pMEK and pERK. FIG. 6C. To compare levels of dimerization, 293H cells co-expressing FLAG tagged and V5-tagged p61 BRAF(V600E), full length BRAF(V600E) and the corresponding dimerization-deficient mutants p61 BRAF(V600E/R509H) and BRAF(V600E/R509H) were lysed followed by immunoprecipitation with FLAG antibody. Western blots with V5 or FLAG antibodies were performed as indicated. FIG. 6D. Comparison of MEK/ERK activation and sensitivity of ERK signaling to PLX4032 (2 μM for 1 hour) in 293H cells expressing either Flag-tagged BRAF(V600E) or the dimerization mutant Flag-tagged BRAF(V600E/R509H). FIG. 6E. Constructs expressing V5-tagged BRAF(V600E), p61 BRAF(V600E) or the dimerization mutant p61 BRAF(V600E/R509H) were transfected into 293H cells and treated with DMSO or 2 μM PLX4032 for 1 hour.\nPlasmids/Trasfections. Flag-tagged BRAF constructs have been described previously^4. All other plasmids were created using standard cloning methods, with pcDNA3.1 (Invitrogen) as a vector. Mutations were introduced using the site-directed Mutagenesis Kit (Stratagene). For transfection studies, cells were seeded at 35 mm or 100 mm plates and transfected the following day using Lipofectamine 2000 (Invitrogen). Cells were collected 24 hours later for subsequent analysis."}, "[2]": {"test_system": "M249 R sub-line (M249 R4)", "assay": "Cell survival / proliferation assay (72 h)", "assay_type": "cell-based, human", "settings": "M249 R sub-lines", "procedure": "Cells were maintained in Dulbecco's modified Eagle medium (DMEM) with 10 or 20% fetal bovine serum and glutamine. shRNAs were sub-cloned into the lentiviral vector pLL3.7 and infections carried out with protamine sulphate. Stocks of PLX4032 (Plexxikon) and AZD6244 (commercially available) were made in DMSO. Cells were quantified using CellTiter-GLO Luminescence (Promega).\nCell proliferation experiments were performed in a 96-well format (five replicates), and baseline quantification performed at 24 h after cell seeding along with initiation of drug treatments (72 h). Stocks and dilutions of PLX4032 (Plexxikon), AZD6244 (Selleck Chemicals) and U0126 (Promega) were made in DMSO. siRNA pool (Dharmacon) transfections were carried out in 384-well format. TransIT transfection reagent (Mirus) was added to each well and incubated at 37° C. for 20 min. Subsequently, cells were reverse transfected, and the mixture was incubated for 51-61 h at 37° C. Cells were quantified using CellTiter 96 Aqueous One Solution (Promega) or CellTiter-GLO Luminescence (Promega) following the manufacturer's recommendations.\nCell culture, infections and drug treatments. Cells were maintained in DMEM with 10 or 20% fetal bovine serum and glutamine. shRNAs for B-RAF and C-RAF were sub-cloned into the lentiviral vector pLL3.7; pBabe B-RAF (V600E) was purchase (plasmid 17544, Addgene); viral supernatants generated by co-transfection with three packaging plasm ids into HEK293T cells; and infections carried out with protamine sulfate. Stocks and dilutions of PLX4032 (Plexxikon, Berkeley, Calif.) and AZD6244 (commercially available) were made in DMSO. Cells were quantified using CellTiter-GLO Luminescence (Promega) or crystal violet staining followed by NIH Image J quantification."}, "[3]": {"test_system": "V600EB-RAF-positive melanomas", "settings": "patients with V600EB-RAF-positive melanomas; cited from earlier work"}, "SKMEL-239": {"test_system": "SKMEL-239", "assay": "Cell cycle and apoptosis analysis", "assay_type": "cell-based, human", "settings": "SKMEL-239 parental, 2 μM PLX4032", "procedure": "Cell proliferation and cell cycle analysis. All melanoma cell lines were generated by A. Houghton (MSKCC) or obtained from ATCC. 293H cells were obtained from Invitrogen. Cells were maintained in DMEM (293H and MEFs), or RPMI (all other cell lines) supplemented with 2 mM glutamine, antibiotics and 10% fetal bovine serum. We confirmed by DNA fingerprinting^20 that all PLX4032-resistant, SKMEL-239 clones were derived from the same patient, thus excluding the possibility of contamination (Table 6). For proliferation assays, cells were plated in 6 well plates and 24 hours later were treated with varying concentrations of inhibitors as indicated. IC50 values were calculated using Graph Pad Prism v.5. For cell cycle and apoptosis studies, cells were seeded in 6 well dishes the day prior to drug treatment. For analysis, both adherent and floating cells were harvested and stained with ethidium bromide as described previously^21."}},
  "note": "Entries after “also recorded” stand apart in the source; their conditions may differ. Where two headings read alike, the source gives them in different places.",
  "data": [
    {"smiles": "CCCS(=O)(=O)Nc1ccc(F)c(C(=O)c2c[nH]c3ncc(-c4ccc(Cl)cc4)cc23)c1F", "note": "[PLX4032]", "values": [
      {"measurement": "sensitivity of ERK signaling", "setting": "BRAF(V600E/R509H)", "value": "remained sensitive"},
      {"measurement": "sensitivity of immunoprecipitated B-RAF kinase activities", "setting": "B-RAF(V600E) kinase", "value": "similarly sensitive"},
      {"measurement": "PLX4032-induced decreases in p-MEK1/2 and p-ERK1/2", "setting": "[1]; M229 R5", "value": "similarly sensitive"},
      {"measurement": "PLX4032-induced decreases in p-MEK1/2 and p-ERK1/2", "setting": "[1]; M238 R1", "value": "similarly sensitive"},
      {"measurement": "PLX4032-induced MEK/ERK inhibition", "setting": "[1]; M249 R4", "value": "strong resistance"},
      {"measurement": "p-MEK1/2 and p-ERK1/2 levels", "setting": "[1]; all parental cells (M229, M238, M249)", "value": "dose-dependent decreases"},
      {"measurement": "sensitivity of ERK signaling (pMEK, pERK)", "setting": "p61 BRAF(V600E); 293H cells, 2 μM PLX4032 for 1 hour", "value": "resistant; also recorded: insensitive"},
      {"measurement": "inhibition of ERK signaling", "setting": "p61 BRAF(V600E); HT-29 (BRAF(V600E)) colorectal carcinoma cells expressing p61 BRAF(V600E)", "value": "failure of PLX4032 to effectively inhibit ERK signaling"},
      {"measurement": "inhibition of ERK signaling", "setting": "p61 BRAF(V600E); parental SKMEL-239 cells expressing p61 BRAF(V600E)", "value": "failure of PLX4032 to effectively inhibit ERK signaling"},
      {"measurement": "GI50", "setting": "[2]; Homo sapiens, not reached up to 10 μM, read-out: GI50, concentration of drug that inhibits growth of cells by 50%", "value": "> 10", "unit": "µM"},
      {"measurement": "growth at low PLX4032 concentrations", "setting": "[2]; in contrast to parental cells", "value": "paradoxically enhanced growth"},
      {"measurement": "anti-tumor response rate", "setting": "[3]", "value": 80, "unit": "%"},
      {"measurement": "cell cycle effect", "setting": "SKMEL-239", "value": "accumulation of cells in G1"},
      {"measurement": "cell death", "setting": "SKMEL-239", "value": "significant induction of cell death"}
    ]}
  ]
}
